# Source: ChEMBL document CHEMBL1201862, “PubChem BioAssay data set” (2004)
# Active and inactive are the calls of the source.
# Legend:
# [1] = A cytotoxicity screen of small molecule inhibitors of the PhoP region in Salmonella typhi identified in the primary screen. [Related pubchem assays: 1850, 1864, 1985 ]; format: functional
# [2] = molecular target: E3 ubiquitin-protein ligase Mdm2 (Homo sapiens, UniProt Q00987); experiment: enhancers of MDM2-luciferase reporter signal, concentration-effect titration, project on inhibitors of MDM2 ubiquitin ligase, cellular assay, luminescent readout, 384-well plate format (AID 1394); format: functional;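 note: MDM2 E3 inhibitors raise luminescence so EC50 is for signal enhancement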
# [3] = cells; format: functional
# [4] = molecular target: Peroxisome proliferator-activated receptor gamma/Nuclear receptor coactivator 3 (Homo sapiens, UniProt P37231); format: functional;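 note: agonist potency for raising coactivator recruitment to the receptor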
# [5] = molecular target: Peroxisome proliferator-activated receptor gamma/Nuclear receptor coactivator 2 (Homo sapiens, UniProt P37231); format: functional;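 note: agonist potency for raising coactivator recruitment to the receptor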
# [6] = molecular target: Peroxisome proliferator-activated receptor gamma/Nuclear receptor coactivator 1 (Homo sapiens, UniProt P37231); format: functional;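 note: agonist potency as compounds enhance coactivator SRC-1 recruitment to PPARgamma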
# [7] = molecular target: DNA dC->dU-editing enzyme APOBEC-3A (Homo sapiens, UniProt P31941); experiment: Dose Response confirmation of small molecule APOBEC3A DNA Deaminase Inhibitors via a fluorescence-based single-stranded DNA deaminase assay. [Related pubchem assays (depositor defined):AID493011, AID493024]; format: functional
# [8] = molecular target: DNA dC->dU-editing enzyme APOBEC-3G (Homo sapiens, UniProt Q9HC16); format: functional;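 note: Dose-response counterscreen measuring inhibition of APOBEC3G DNA deaminase activity, run while confirming APOBEC3A inhibitors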
# [9] = molecular target: T1, Polyadenylate-binding protein 1 (Homo sapiens, UniProt P11940); experiment: PABP1 MLLE–PAM2 binding inhibitor potency, dose response, biochemical, fluorescence polarization, FITC-PAM2 peptide (AID 602259); format: functional; settings: read-out: IC50_Mean
# [10] = THP-1 cell cytotoxicity, dose response, cytotoxicity control for Vif-APOBEC3G degradation inhibitor project, THP-1 cells (AID 1117359); format: functional; settings: Human immunodeficiency virus 1, THP-1
# [11] = molecular target: T2, Apoptotic protease-activating factor 1 (Homo sapiens, UniProt O14727); format: functional
# T2 sequence (O14727 whole entry): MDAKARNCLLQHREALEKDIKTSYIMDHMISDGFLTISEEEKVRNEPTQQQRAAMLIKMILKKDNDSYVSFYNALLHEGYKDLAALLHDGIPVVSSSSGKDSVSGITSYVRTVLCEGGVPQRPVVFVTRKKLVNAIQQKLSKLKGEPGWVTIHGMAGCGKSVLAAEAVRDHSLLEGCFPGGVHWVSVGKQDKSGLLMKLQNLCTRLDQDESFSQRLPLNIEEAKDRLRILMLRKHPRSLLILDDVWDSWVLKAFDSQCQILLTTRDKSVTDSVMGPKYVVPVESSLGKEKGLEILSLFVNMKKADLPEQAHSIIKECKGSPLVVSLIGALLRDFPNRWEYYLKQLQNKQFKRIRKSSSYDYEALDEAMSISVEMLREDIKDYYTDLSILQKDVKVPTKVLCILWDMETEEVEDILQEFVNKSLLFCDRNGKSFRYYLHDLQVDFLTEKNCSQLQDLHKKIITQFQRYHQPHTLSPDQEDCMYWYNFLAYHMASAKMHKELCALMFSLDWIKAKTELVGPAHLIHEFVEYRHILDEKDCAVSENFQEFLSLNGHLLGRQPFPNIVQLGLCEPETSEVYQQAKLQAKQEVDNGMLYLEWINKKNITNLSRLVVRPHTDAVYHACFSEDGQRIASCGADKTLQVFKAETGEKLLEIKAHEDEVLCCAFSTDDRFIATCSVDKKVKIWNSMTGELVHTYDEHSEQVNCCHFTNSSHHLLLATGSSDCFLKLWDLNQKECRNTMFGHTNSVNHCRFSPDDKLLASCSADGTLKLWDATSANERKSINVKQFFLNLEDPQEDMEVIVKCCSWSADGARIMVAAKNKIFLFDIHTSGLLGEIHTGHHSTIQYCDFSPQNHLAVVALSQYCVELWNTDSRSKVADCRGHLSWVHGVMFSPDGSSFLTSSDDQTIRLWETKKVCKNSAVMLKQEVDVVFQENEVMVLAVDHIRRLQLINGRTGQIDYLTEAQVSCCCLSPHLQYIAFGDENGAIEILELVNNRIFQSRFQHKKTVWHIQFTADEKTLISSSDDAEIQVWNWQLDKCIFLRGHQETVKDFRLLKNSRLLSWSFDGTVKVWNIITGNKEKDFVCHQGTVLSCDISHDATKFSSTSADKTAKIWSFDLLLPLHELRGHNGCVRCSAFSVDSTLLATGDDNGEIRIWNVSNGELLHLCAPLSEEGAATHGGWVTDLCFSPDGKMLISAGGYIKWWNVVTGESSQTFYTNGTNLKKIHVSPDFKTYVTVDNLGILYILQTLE
# [12] = tested on: Vero; experiment: Vero cell cytotoxicity, cytotoxicity control for flavivirus capping enzyme inhibitors (AID 588742); format: functional; settings: Chlorocebus sabaeus
# [13] = molecular target: T1, Polyadenylate-binding protein 1; experiment: PABP1 MLLE–PAM2 interaction inhibitors, dose response, miRNA deadenylation inhibitor project, biochemical, fluorescence polarization, Cy5-PAM2 peptide, secondary (AID 602260); format: functional; settings: read-out: IC50_Mean
# [14] = molecular target: Induced myeloid leukemia cell differentiation protein Mcl-1 (Homo sapiens, UniProt Q07820); format: functional
# [15] = molecular target: Estrogen receptor beta (Homo sapiens, UniProt Q92731);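 note: recombinant ER-beta bound to coactivator SRC1 peptide in presence of estradiol agonist; inhibitors block coactivator peptide binding and lower the FRET signal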
# [16] = molecular target: Glyceraldehyde-3-phosphate dehydrogenase (Homo sapiens, UniProt P04406)
# [17] = molecular target: T3, Kappa-type opioid receptor (Homo sapiens, UniProt P41145); format: functional
# [18] = molecular target: T3, Kappa-type opioid receptor; format: functional; remark: listed apart in the source
# [19] = molecular target: T4, Beta-galactosidase (Escherichia coli, UniProt Q8VNN2); format: functional
# [20] = molecular target: T5, Type-1 angiotensin II receptor (Homo sapiens, UniProt P30556); experiment: AT1 receptor antagonists, dose response, selectivity assay for APJ receptor antagonist project, cell-based, uHTS hits (AID 463214); format: functional;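 note: antagonist potency against angiotensin II stimulated AT1 response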
# T5 sequence (P30556 whole entry): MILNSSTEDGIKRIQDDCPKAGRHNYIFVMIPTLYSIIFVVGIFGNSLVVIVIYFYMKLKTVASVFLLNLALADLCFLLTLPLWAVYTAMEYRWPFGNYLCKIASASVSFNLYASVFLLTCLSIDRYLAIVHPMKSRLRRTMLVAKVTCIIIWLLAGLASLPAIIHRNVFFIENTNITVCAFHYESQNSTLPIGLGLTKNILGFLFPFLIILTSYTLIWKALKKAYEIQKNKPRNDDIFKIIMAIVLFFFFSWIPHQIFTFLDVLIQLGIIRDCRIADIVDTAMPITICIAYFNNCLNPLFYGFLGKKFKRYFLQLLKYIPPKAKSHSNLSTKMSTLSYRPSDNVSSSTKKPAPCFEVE
# [21] = molecular target: T4, Beta-galactosidase; experiment: PubChem AID 485352; format: functional
# [22] = tested on: Streptococcus sp. 'group A'; experiment: growth inhibition of control SK(-) GAS strain, dose response, counter-screen for streptokinase expression inhibitor project, luminescence, kanamycin, BacTiterGlo, confirmation (AID 1900); format: functional, organism-based
# [23] = tested on: Streptococcus; experiment: Group A Streptococcus viability loss, dose response, counter-screen for streptokinase expression inhibitor project, luminescence, BacTiterGlo (AID 1915); format: functional, organism-based;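 note: potency for reduction of bacterial viability or growth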
# [24] = molecular target: T6, Aminopeptidase N (Plasmodium falciparum FcB1/Columbia, UniProt O96935); experiment: P. falciparum M1AAP inhibitors, biochemical, fluorogenic H-Leu-NHMec substrate, 1536-well (AID 1445); set-up: species or system Plasmodium falciparum 3D7, 3D7
# T6 sequence (O96935 whole entry): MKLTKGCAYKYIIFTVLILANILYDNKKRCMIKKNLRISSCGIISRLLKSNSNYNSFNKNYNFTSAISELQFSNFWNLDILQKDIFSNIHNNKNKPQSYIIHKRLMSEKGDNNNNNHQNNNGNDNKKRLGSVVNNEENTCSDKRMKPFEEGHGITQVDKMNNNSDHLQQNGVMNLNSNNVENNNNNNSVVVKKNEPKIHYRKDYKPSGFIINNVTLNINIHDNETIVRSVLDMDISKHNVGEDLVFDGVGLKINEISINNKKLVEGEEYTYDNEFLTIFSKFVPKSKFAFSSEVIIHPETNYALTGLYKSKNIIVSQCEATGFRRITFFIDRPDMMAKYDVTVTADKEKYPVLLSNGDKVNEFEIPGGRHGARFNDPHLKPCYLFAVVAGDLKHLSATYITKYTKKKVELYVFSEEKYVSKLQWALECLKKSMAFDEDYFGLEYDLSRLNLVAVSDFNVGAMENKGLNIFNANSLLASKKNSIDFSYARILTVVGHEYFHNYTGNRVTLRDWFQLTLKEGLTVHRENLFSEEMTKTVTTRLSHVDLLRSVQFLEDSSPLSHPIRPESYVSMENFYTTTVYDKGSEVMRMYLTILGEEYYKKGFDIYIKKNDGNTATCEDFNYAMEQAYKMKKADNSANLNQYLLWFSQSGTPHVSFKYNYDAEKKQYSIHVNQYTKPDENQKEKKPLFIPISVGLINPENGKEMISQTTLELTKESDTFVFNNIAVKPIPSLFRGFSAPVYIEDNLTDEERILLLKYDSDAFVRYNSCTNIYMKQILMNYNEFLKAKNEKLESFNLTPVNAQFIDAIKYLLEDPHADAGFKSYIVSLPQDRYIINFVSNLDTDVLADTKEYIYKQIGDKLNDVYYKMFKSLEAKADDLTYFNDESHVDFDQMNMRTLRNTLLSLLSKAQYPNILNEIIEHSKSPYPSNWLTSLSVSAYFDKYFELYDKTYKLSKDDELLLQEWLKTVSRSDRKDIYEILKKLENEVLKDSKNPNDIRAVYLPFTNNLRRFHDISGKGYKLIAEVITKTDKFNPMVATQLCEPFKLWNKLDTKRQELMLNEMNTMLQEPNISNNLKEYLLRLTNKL
# T4 sequence (Q8VNN2 whole entry): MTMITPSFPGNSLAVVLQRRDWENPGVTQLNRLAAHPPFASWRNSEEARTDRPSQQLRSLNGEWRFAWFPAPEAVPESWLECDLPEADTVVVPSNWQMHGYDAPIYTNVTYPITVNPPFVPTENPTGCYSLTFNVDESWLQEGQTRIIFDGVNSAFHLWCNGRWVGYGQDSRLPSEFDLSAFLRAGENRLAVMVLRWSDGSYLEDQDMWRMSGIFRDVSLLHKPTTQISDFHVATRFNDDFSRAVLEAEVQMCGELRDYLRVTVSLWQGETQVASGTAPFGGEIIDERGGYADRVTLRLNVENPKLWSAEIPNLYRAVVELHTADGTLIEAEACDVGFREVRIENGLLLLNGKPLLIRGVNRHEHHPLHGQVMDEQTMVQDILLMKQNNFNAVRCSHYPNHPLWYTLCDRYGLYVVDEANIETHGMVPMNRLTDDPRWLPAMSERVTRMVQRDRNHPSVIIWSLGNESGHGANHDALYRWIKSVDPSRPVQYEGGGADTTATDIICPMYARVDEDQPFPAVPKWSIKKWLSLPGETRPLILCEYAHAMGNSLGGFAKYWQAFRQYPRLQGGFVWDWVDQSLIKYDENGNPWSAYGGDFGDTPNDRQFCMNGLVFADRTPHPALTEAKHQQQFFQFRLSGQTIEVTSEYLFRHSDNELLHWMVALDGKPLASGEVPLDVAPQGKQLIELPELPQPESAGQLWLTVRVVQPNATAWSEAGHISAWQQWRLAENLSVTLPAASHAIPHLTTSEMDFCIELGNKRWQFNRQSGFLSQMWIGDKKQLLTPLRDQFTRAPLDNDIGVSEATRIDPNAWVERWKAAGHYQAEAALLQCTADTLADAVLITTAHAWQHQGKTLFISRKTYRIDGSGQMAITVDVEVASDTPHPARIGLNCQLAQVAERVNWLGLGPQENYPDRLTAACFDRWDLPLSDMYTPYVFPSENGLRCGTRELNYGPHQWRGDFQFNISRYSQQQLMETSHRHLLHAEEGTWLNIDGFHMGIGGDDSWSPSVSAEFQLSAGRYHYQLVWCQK
# E3 ubiquitin-protein ligase Mdm2, sequence (Q00987 whole entry): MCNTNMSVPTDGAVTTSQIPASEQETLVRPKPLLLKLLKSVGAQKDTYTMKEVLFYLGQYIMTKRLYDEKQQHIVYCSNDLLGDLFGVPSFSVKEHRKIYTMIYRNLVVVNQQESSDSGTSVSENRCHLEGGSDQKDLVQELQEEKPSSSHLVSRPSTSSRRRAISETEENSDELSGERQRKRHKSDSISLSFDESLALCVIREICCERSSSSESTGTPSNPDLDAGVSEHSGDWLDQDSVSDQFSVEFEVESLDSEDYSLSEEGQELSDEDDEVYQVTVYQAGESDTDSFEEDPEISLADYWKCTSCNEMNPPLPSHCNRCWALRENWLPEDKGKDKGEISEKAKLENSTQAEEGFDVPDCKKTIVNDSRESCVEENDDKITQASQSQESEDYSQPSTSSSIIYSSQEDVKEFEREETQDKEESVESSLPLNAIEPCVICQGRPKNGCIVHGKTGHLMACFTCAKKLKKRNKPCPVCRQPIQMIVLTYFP
# Peroxisome proliferator-activated receptor gamma/Nuclear receptor coactivator 2, sequence (P37231 whole entry): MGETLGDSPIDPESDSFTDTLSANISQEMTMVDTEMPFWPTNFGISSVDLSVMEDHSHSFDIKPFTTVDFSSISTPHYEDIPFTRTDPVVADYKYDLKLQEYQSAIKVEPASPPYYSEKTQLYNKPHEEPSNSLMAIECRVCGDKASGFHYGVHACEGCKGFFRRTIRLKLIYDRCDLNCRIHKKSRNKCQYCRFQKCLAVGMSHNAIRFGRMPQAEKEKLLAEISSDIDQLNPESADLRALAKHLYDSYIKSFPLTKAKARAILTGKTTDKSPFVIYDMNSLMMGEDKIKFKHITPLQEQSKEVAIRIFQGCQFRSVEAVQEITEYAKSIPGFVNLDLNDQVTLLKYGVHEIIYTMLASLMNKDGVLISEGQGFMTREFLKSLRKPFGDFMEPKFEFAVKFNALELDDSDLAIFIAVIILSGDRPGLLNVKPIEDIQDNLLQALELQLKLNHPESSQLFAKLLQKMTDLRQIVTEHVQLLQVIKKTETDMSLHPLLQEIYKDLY
# Peroxisome proliferator-activated receptor gamma/Nuclear receptor coactivator 2, sequence (Q15596 whole entry, further chain): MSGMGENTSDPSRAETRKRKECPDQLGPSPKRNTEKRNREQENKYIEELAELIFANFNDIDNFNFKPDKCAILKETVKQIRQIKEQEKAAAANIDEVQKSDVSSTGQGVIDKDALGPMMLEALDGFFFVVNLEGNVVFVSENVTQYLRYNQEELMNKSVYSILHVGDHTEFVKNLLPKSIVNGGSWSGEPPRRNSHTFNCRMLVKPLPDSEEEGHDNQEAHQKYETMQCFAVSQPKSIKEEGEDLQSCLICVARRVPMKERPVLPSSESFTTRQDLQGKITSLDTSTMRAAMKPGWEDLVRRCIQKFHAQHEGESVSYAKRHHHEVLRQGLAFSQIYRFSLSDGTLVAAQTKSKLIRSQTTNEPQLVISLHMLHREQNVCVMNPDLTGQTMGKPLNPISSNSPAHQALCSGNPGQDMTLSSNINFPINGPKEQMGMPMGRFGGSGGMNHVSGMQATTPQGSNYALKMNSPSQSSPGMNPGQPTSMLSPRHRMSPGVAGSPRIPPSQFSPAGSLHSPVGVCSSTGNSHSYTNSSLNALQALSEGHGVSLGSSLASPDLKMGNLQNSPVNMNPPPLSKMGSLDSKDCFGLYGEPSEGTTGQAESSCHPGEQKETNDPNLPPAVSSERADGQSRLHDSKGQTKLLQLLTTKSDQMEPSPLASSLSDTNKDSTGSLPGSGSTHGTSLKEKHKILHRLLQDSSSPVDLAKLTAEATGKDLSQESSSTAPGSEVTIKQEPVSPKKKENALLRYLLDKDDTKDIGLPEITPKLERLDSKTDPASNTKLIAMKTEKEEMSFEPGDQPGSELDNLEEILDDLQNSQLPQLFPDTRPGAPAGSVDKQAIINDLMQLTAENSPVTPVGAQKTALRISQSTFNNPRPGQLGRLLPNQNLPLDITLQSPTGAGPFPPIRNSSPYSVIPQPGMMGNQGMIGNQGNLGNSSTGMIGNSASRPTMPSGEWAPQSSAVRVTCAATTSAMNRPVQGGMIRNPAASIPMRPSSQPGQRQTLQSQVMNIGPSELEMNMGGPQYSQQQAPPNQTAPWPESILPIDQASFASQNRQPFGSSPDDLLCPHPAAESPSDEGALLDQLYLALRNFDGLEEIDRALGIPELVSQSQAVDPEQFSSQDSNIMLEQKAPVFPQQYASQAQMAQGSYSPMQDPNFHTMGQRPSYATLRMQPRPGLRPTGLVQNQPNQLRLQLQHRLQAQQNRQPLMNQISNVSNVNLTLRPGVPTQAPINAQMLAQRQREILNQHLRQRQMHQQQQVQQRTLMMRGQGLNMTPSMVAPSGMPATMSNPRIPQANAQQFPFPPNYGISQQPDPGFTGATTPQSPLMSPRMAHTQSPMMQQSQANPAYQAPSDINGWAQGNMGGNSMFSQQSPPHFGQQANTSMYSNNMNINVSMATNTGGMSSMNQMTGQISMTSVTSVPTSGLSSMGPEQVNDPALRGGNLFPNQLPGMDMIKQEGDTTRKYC
# DNA dC->dU-editing enzyme APOBEC-3A, sequence (P31941 whole entry): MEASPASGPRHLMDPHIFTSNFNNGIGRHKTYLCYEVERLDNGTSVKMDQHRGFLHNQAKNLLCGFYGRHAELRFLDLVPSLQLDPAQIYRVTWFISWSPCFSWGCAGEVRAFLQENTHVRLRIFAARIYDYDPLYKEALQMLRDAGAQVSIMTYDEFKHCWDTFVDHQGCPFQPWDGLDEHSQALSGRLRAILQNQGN
# DNA dC->dU-editing enzyme APOBEC-3G, sequence (Q9HC16 whole entry): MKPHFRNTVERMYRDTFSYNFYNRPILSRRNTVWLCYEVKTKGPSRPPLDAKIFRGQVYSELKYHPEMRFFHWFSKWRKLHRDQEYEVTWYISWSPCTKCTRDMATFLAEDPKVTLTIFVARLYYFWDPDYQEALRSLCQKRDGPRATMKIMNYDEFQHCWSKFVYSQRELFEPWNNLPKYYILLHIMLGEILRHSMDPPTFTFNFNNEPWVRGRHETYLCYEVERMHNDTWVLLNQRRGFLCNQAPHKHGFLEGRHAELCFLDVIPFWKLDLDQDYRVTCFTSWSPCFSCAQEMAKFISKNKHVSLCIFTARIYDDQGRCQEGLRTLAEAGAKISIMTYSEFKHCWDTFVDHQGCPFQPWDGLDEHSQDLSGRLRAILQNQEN
# T1 sequence (P11940 whole entry): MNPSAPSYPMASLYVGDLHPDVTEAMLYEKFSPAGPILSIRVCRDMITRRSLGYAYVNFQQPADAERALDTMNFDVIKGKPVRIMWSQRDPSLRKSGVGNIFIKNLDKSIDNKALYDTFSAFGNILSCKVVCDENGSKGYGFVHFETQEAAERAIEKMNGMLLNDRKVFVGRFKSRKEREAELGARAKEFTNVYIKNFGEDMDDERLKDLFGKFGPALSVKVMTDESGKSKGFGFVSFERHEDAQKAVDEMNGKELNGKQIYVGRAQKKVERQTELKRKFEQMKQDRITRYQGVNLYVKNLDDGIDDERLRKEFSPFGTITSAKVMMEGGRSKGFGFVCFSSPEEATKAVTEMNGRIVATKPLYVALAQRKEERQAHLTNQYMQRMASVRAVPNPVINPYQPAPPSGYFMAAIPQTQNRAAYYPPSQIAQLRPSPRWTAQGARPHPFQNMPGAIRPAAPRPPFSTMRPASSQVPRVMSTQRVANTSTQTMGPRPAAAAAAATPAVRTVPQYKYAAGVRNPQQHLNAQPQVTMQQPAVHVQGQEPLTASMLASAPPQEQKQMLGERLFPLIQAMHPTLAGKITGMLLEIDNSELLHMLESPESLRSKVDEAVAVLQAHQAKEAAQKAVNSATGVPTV
# Glyceraldehyde-3-phosphate dehydrogenase, sequence (P04406 whole entry): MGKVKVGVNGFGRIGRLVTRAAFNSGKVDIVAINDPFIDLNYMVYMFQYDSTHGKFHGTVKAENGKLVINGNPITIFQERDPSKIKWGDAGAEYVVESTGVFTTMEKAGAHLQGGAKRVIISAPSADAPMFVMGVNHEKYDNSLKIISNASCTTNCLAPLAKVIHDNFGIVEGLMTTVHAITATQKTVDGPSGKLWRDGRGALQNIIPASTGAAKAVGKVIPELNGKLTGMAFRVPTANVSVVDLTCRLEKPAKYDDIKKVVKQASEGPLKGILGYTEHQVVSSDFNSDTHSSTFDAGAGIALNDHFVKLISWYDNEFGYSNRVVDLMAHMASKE
structure (smiles),measurement,setting,value
c1ccc(CSc2ccc(-c3cccs3)nn2)nc1,EC50,[1],> 50 µM (active)
O=C(Nc1ccncc1)Nc1ccncc1,EC50,[2],8.86 µM (not active)
CCOC(=O)c1ccc(COC(=O)c2cc3ccccc3oc2=O)o1,IC50,[3],> 50 µM (active)
CCOc1nc(-c2ccccc2)ccc1-c1noc(-c2cccs2)n1,EC50,[4],29.6 µM (not active)
same,EC50,[5],21.2 µM (not active)
same,EC50,[6],25.8 µM (not active)
O=C(CSc1ccc(-c2ccco2)nn1)NC1CCCC1,EC50,[2],0.75 µM (not active)
CCOC(=O)c1nn(-c2ccc(Cl)cc2)c2nc(-c3ccc(C)cc3)c(C#N)c(=O)n12,EC50,[4],> 79.4 µM (not active)
same,EC50,[5],> 79.4 µM (not active)
same,EC50,[6],> 79.4 µM (not active)
O=C(CSc1ncnc2nc[nH]c12)Nc1ccccc1C(F)(F)F,IC50,[7],50.8 µM (active)
same,IC50,[8],93.7 µM (active)
CS(=O)(=O)N(CCc1ccccc1)CC(=O)Nc1ccc2c(c1)OCO2,EC50,[1],> 50 µM (active)
CCC(=O)Nc1cc(C(=O)O)ccc1S(=O)(=O)c1ccc(C)cc1,IC50,[7],16.4 µM (active)
same,IC50,[8],42.2 µM (active)
N=C(NOS(=O)(=O)c1ccc(Cl)cc1)c1cccnc1,EC50,[1],> 50 µM (active)
Cc1ccc2c(c1)c1ccc3c(c1n2C)C(=O)C=CC3=O,IC50,[9],> 66 µM (inactive)
same,CC50,[10],12.5 µM (active)
same,IC50,[11],51.8 µM (active)
same,EC50,[2],958 µM (active)
same,CC50,[12],27.3 µM (active)
same,IC50,[13],> 66 µM (inactive)
same,IC50,[14],1.51 µM (active)
CSCCC(NC(=O)c1ccco1)C(=O)OCC(=O)Nc1sccc1C#N (stereo not given),IC50,[15],16.5 µM (active)
COc1ccc(CCNC(=O)CN(C2CCCCC2)S(C)(=O)=O)cc1OC,IC50,[7],4.1 µM (active)
same,IC50,[8],5.58 µM (active)
CCOc1ccc(-c2csc(NNC3=NCCCCC3)n2)cc1,IC50,[9],> 66 µM (inactive)
same,EC50,[4],> 79.4 µM (not active)
same,EC50,[5],> 79.4 µM (not active)
same,IC50,[13],> 66 µM (inactive)
same,EC50,[6],> 79.4 µM (not active)
CC(C)=CCN1CCN(Cc2nc(-c3ccccc3)cs2)CC1CCO (stereo not given),EC50,[1],> 50 µM (active)
O=C1NN(c2cccc(Cl)c2)C(=O)/C1=C\c1ccc(-c2cccc(C(=O)O)c2)o1,IC50,[16],> 100 µM (not active)
Cc1oc(C(=O)O)cc1COc1ccc2c(oc(=O)c3ccccc32)c1C,IC50,[16],> 100 µM (not active)
COCCN(CC(=O)Nc1cccc(C)c1C)C(=O)CN1C(=O)NC2(CCCCC2)C1=O,IC50,[7],11.1 µM (active)
same,IC50,[8],12.2 µM (active)
CSC(=S)N/N=C(\C)c1ccccc1,IC50,[17],> 32 µM
same,IC50,[18],8.37 µM (active)
same,EC50,[19],> 31.5 µM (inactive)
CCCOc1cccc(-c2cc(C(=O)N/N=C/c3ccccn3)c3ccccc3n2)c1,IC50,[17],> 32 µM
same,IC50,[18],8.44 µM (active)
same,IC50,[20],5.9 µM (active)
same,EC50,[19],> 31.5 µM (inactive)
same,EC50,[21],> 40 µM (inactive)
same,EC50,[22],1.95 µM (active)
same,EC50,[23],2.21 µM (active)
Cc1nnc(O)nc1N/N=C/c1cccs1,IC50,[24],25.8 µM (active)
same,EC50,[4],> 79.4 µM (not active)
same,EC50,[5],> 79.4 µM (not active)
same,EC50,[6],> 79.4 µM (not active)
